Laboratory results published in patent US9808434B2, “Compound for treating cancer and diabetes” (CITY OF HOPE, priority 2011, dated 2017).

Key:
HRE promoter = HRE promoter luciferase reporter in U251; type: cell-based; conditions: U251, 1 or 3 μM, 24 hours, normoxic and hypoxic
Procedure: U251 cells were transfected with plasmids expressing luciferase reporter genes driven by a HRE reporter plasmid containing five copies of the HRE site (5×HRE). Transfected cells were then incubated with COH-SR4 at various concentrations (0, 1, or 3 μM) for 24 hours and assayed for luciferase activities. Data were represented as a ratio to vehicle control that was treated by DMSO.

B16F10 cells = test: B16F10 cell viability; type: cell-based, mouse; conditions: 1-10 μM, 48 hours; vs COH-SR9 and COH-SR18
Procedure: Cells of highly aggressive mouse melanoma cell line B16F10 were incubated with various doses of COH-SR4, COH-SR9 and COH-SR18 (1, 3, 5 or 10 μM) for 48 hours.

A2058 cells = test: Mitochondrial membrane depolarization, TMRE; type: cell-based, human; conditions: 5 μM
Procedure: Cells (4×10^5/well in 6-well plates) cultured overnight were pre-incubated with the fluorescent indicator of MMP tetramethylrhodamine ester (TMRE, 200 nM) or DMSO control for 30 min at 37° C. in CO2 incubator. Cells were washed with pre-warmed normal DMEM media, and test compounds were added with fresh media for the indicated times. Cells were then trypsinized, collected, centrifuged for 5 min at 800×g, and washed once in pre-warmed PBS-0.2% BSA. Cells were then resuspended in the same buffer prior to flow cytometric analysis. A total of 30,000 cells were counted per sample and data was analyzed by Cyan ADP flow cytometer with excitation/emission of 488 nm/572 nm (Beckman Coulter, Inc., Brea, Calif.). For measurements of membrane potential in isolated mouse liver mitochondria, the organelles were pre-incubated with 200 nM TMRE in MASSRO buffer (MAS buffer supplemented with 10 mM succinate, 1 μM rotenone, and 1 μM oligomycin) for 20 min at 25° C. The mitochondria were centrifuged for 5 min at 3000×g and resuspended in MASSRO buffer. Mitochondria were then added to MASSRO buffer containing the indicated concentrations of COH-SR4, FCCP or DMSO vehicle control and incubated at room temperature for 15 min. […] TMRE fluorescence was measured with a microplate reader (Tecan Infinite M200 Pro, Tecan Group Ltd., Switzerland) using an excitation emission of 545ex/580em. […]

H1618 = test: Colony formation assay, H1618; type: cell-based, human; conditions: 1.5 μM
Procedure: Cell survival was evaluated using a standard colony-forming assay. In total, 1×10^5 cells/mL were incubated with COH-SR4 (1.5 μM or 5 μM) or elesclomol (5 μM) for 24 h, and aliquots of 50 or 100 μL were added to 60 mm size petri dishes, containing 4 mL culture medium. After 7 or 10 days, adherent colonies were fixed, stained with 0.5% methylene blue for 30 min and colonies were counted using the Innotech Alpha Imager HP (91).
The effect of COH-SR4 was first examined in a NCI panel of cancer cell lines, the results of which indicated good activity of COH-SR4 towards lung cancer (FIG. 78A). […] Values are presented as mean±SD from two separate determinations with eight replicates each (n=16) (FIG. 78B). The COH-SR4 treatment exerted a significant inhibitory effect on the survival of lung cancer cells [IC50: H1417 cells-1.2±0.2 μM, H1618 cells-1.5±0.2 μM, H358 cells-2.1±0.2 μM and H520 cells-2.4±0.3 μM]. […] Following initial screening for the anticancer activity of COH-SR4, the effect of COH-SR4 on clonogenic potential was studied. Standard colony-forming assay was performed and the colonies were counted using Innotech Alpha Imager HP. […] The effect of COH-SR4 on induction of apoptosis was further investigated. […] TUNEL assay was performed using Promega fluorescence detection kit and examined using Zeiss LSM 510 META laser-scanning fluorescence microscope with filters 520 and 620 nm. […]

H358 and H520 cells = test: COH-SR4 cytotoxicity after siRNA knock-down of AMPK, XTT; type: cell-based, human
Procedure: The effects of COH-SR4 on cell viability were assessed in quadruplicate samples using the 2,3-bis (2-methoxy-4-nitro-5-sulfophenly)-5-[(phenylamino) carbonyl]-2H-tetrazolium hydroxide (XTT) assay. Briefly, 20,000 cells were seeded and incubated in 96-well, flat-bottomed plates in 10% FBS-supplemented culture medium 24 h before drug treatment. After 24 h incubation at 37° C., cells were then exposed to the indicated concentrations of drug at 37° C. in 5% CO2 for 48 h. The medium was removed and replaced with 100 μL fresh medium containing 50 μL of the activated-XTT solution to each well, and the cells were further cultured in the CO2 incubator at 37° C. for 4 h. Absorbance was determined on a plate reader at 475 nm.
AMPK was knocked down by siRNA and assessed the impact on COH-SR4-induced cytotoxicity. […] Thus, the in-vitro analyses of critical signaling proteins of cell proliferation further supported the anti-cancer effects of COH-SR4 in lung cancer cells.

[1] = Metabolic effects in Type 2 diabetes db/db mice; type: in vivo, mouse; conditions: five weeks
Procedure: All animal experiments were carried out in accordance with the protocols approved by the Institutional Animal Care and Use Committee of the City of Hope. Nine-week old male C57BL/6J mice fed on high fat diet (HFD, 60% fat) and 10-week old db/db mice were given COH-SR4 (5 mg/kg B.W.) or vehicle (corn oil) via oral gavage every other day for six and five weeks, respectively. Oral glucose tolerance test was performed on animals after an overnight fast. All other metabolic parameters were measured at the end of study. Liver samples were stained with H&E and Oil Red O.
All data represented are mean±SEM. *P<0.05, **P<0.01 vs. LFD or db/+; ^#P<0.05, ^##P<0.01 vs. HFD or db/db. n=12 animals per group for HFD mice. LFD=low fat diet (lean), HFD=high fat diet (obese). n=8 animals per group for db/db mice.
Representative mice in each treatment group (db/+, db/db, db/db treated with COH-SR4 (db/db+SR4)) depicted gross images of whole body shape (top) and abdominal fat (bottom) (FIG. 85H).

O=C(Nc1cc(Cl)cc(Cl)c1)Nc1cc(Cl)cc(Cl)c1 [COH-SR4, 1,3-bis(3,5-dichlorophenyl) urea]
luciferase expression driven by HRE promoter (HRE promoter): inhibited luciferase expression driven by HRE promoter
potency in killing B16F10 cells (B16F10 cells): best potency
mitochondrial membrane depolarization (TMRE fluorescence) (A2058 cells): induced mitochondrial membrane depolarization in a time-dependent manner
colony formation (H1618): 48±9%
cytotoxicity of COH-SR4 after knock-down of AMPK (H358 and H520 cells): significant reversal in the cytotoxicity
body weight ([1]; 5 mg/kg oral every other day): decreased body weight
HbA1c levels [1]: lower HbA1c levels
fasting blood glucose [1]: improved fasting blood glucose
glucose tolerance [1]: improved
hepatic steatosis [1]: reduced
hepatic triglycerides [1]: reduced hepatic triglycerides
